Laboratory results: patent publication US4235962A, “Combination kit for transaminase assay of a body fluid” (The Dow Chemical Company, priority 1978, dated 1980)

Experiments:
AST = AST (Sus scrofa, UniProt P00503); conditions: cited from earlier work
[1] = biological target: T1, ALT (alanine 2-oxoglutarate aminotransferase) (Homo sapiens, UniProt P24298)
T1 sequence (P24298 2-496 limits assumed): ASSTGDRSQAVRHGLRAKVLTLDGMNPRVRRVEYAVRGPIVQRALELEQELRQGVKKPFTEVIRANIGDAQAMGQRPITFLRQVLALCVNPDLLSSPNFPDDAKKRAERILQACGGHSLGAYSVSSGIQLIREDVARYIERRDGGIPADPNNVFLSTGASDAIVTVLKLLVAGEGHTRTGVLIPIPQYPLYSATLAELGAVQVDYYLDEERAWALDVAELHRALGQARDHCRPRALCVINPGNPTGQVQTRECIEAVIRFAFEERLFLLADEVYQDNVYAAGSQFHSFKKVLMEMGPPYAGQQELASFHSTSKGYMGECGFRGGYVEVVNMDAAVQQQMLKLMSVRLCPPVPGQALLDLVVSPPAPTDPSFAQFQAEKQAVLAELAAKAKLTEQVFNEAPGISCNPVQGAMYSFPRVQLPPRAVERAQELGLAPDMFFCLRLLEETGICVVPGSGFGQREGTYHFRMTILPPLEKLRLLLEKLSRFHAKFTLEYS
Text: For precise measurement of a bimolecular reaction of the type under discussion, the rate of a reaction, at a given "B" concentration should be independent of A's concentration (i.e. at or near apparent Vmax with respect to A). However, for situations where A's concentrations are very low (i.e. endogenous serum contributions of amino acids in a side reaction situation) it becomes important to be able to access the extent of measurement of the apparent maximum velocity of said "contaminant reaction." This being the case of a combination AST/ALT test where one is concerned with the measurement of AST in an ALT test or vice versa, a mathematical outline is in order. Both side reactions are quantitatively discussed below.
ALT, likewise having a "ping pong" mechanism of catalysis, can kinetically be described identically: [formula] […] (KB /B+1 is again <<KA /A.
Therefore the [formula] […] Therefore the % V1 apparent as measured [formula]

Sequence of AST (P00503 2-413 limits assumed): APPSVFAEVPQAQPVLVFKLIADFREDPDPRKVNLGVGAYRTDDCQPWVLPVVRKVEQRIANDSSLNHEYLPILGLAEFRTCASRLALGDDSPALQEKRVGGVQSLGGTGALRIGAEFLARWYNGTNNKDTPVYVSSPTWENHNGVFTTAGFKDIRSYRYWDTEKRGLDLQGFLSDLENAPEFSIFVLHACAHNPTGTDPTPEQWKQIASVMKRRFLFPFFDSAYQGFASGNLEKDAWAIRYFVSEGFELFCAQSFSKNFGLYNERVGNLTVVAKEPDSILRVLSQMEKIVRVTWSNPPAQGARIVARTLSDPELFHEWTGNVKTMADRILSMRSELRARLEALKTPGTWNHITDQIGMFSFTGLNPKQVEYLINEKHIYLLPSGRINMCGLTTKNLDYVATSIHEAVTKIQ

## N[C@@H](CC(=O)O)C(=O)O [aspartate, L-aspartate]
AST; A = aspartate
  KA: 0.90 mM

## C[C@H](N)C(=O)O [alanine, L-alanine]
[1]
  Theoretical turnover of ALT: 1.32 % Vmax

## O=C(O)CCC(=O)C(=O)O [2-oxoglutarate, 2-Oxoglutarate]
AST; read-out: KB, B = 2-oxoglutarate
  Km: 100 µM
